Assay results as given in ChEMBL document CHEMBL2177090, “Ceric ammonium nitrate-promoted oxidative coupling reaction for the synthesis and evaluation of a series of anti-tumor amide anhydrovinblastine analogs” (Bioorg Med Chem Lett, 2012).
pIC50: −log10 of the molar value.

Each compound was assayed on HeLa (assay: Cytotoxicity against human HeLa cells by MTT assay).
Assay type: functional, cell-based

Going from CCC1=C[C@H]2CN(CCc3c([nH]c4ccccc34)[C@@](C(=O)OC)(c3cc4c(cc3OC)N(C)[C@H]3[C@@](O)(CCNC(C)=O)[C@H](OC(C)=O)[C@]5(CC)C=CCN6CC[C@]43[C@@H]65)C2)C1 to CCC(=O)NCC[C@@]1(O)[C@H](OC(C)=O)[C@]2(CC)C=CCN3CC[C@@]4(c5cc([C@@]6(C(=O)OC)C[C@H]7C=C(CC)CN(CCc8c6[nH]c6ccccc86)C7)c(OC)cc5N(C)[C@@H]14)[C@@H]32, the pIC50 falls from 7.24 to 6.96 (0.28 log units).

First: CCC1=C[C@H]2CN(CCc3c([nH]c4ccccc34)[C@@](C(=O)OC)(c3cc4c(cc3OC)N(C)[C@H]3[C@@](O)(CCNC(=O)C(C)C)[C@H](OC(C)=O)[C@]5(CC)C=CCN6CC[C@]43[C@@H]65)C2)C1
Second: CCC1=C[C@H]2CN(CCc3c([nH]c4ccccc34)[C@@](C(=O)OC)(c3cc4c(cc3OC)N(C)[C@H]3[C@@](O)(CCNC(=O)CC(C)C)[C@H](OC(C)=O)[C@]5(CC)C=CCN6CC[C@]43[C@@H]65)C2)C1
The pIC50 of the first is 0.86 log units higher: 7.59 for the first, 6.73 for the second. The first is the more potent here.

Compared with CCC1=C[C@H]2CN(CCc3c([nH]c4ccccc34)[C@@](C(=O)OC)(c3cc4c(cc3OC)N(C)[C@H]3[C@@](O)(CCNC(=O)C5CC5)[C@H](OC(C)=O)[C@]5(CC)C=CCN6CC[C@]43[C@@H]65)C2)C1, CCC1=C[C@H]2CN(CCc3c([nH]c4ccccc34)[C@@](C(=O)OC)(c3cc4c(cc3OC)N(C)[C@H]3[C@@](O)(CCNC(=O)c5ccco5)[C@H](OC(C)=O)[C@]5(CC)C=CCN6CC[C@]43[C@@H]65)C2)C1 is 0.89 log units higher in pIC50: 6.85 for the first, 7.74 for the second. The second is the more potent here.

Going from CCC1=C[C@H]2CN(CCc3c([nH]c4ccccc34)[C@@](C(=O)OC)(c3cc4c(cc3OC)N(C)[C@H]3[C@@](O)(CCNC(=O)c5ccccc5)[C@H](OC(C)=O)[C@]5(CC)C=CCN6CC[C@]43[C@@H]65)C2)C1 to CCC1=C[C@H]2CN(CCc3c([nH]c4ccccc34)[C@@](C(=O)OC)(c3cc4c(cc3OC)N(C)[C@H]3[C@@](O)(CCNC(=O)c5ccccc5F)[C@H](OC(C)=O)[C@]5(CC)C=CCN6CC[C@]43[C@@H]65)C2)C1, the pIC50 falls from 6.97 to 6.61 (0.36 log units).

CCC1=C[C@H]2CN(CCc3c([nH]c4ccccc34)[C@@](C(=O)OC)(c3cc4c(cc3OC)N(C)[C@H]3[C@@](O)(CCNC(=O)c5ccc(C)cc5)[C@H](OC(C)=O)[C@]5(CC)C=CCN6CC[C@]43[C@@H]65)C2)C1 and CCC1=C[C@H]2CN(CCc3c([nH]c4ccccc34)[C@@](C(=O)OC)(c3cc4c(cc3OC)N(C)[C@H]3[C@@](O)(CCNC(=O)c5cccc(OC)c5)[C@H](OC(C)=O)[C@]5(CC)C=CCN6CC[C@]43[C@@H]65)C2)C1 are within 0.2 log units of each other in pIC50: 6.59 for the first, 6.77 for the second.

Compared with CCC1=C[C@H]2CN(CCc3c([nH]c4ccccc34)[C@@](C(=O)OC)(c3cc4c(cc3OC)N(C)[C@H]3[C@@](O)(CCNC(=O)c5ccccc5OC)[C@H](OC(C)=O)[C@]5(CC)C=CCN6CC[C@]43[C@@H]65)C2)C1, CCC1=C[C@@H]2CN(C1)Cc1c([nH]c3ccccc13)[C@@](C(=O)OC)(c1cc3c(cc1OC)N(C)[C@H]1[C@@](O)(C(=O)OC)[C@H](OC(C)=O)[C@]4(CC)C=CCN5CC[C@]31[C@@H]54)C2 [VINORELBINE] is 0.94 log units higher in pIC50: 6.63 for the first, 7.57 for the second. The second is the more potent here.
